The text below walks through data of ChEMBL document CHEMBL6121014, “Novel α-mangostin derivatives as promising antiviral agents: Isolation, synthesis, and evaluation against chikungunya virus” (Eur J Med Chem, 2025).

Data set [1] has as its system Chikungunya virus. The data set can be described thus: Antiviral activity against CHIKV infected in green monkey Vero cells assessed as reduction in viral titer pretreated the cells with viral infection for 1 hr followed by compound addition and measured after 24 hrs by Foci forming unit assay. In kind it is functional, organism-based.
Data set [2] can be described thus: Selectivity ratio of IC50 for antiviral activity against CHIKV infected in green monkey Vero cells assessed as reduction in viral titer pretreated the cells with viral infection for 1 hr followed by compound addition and measured after 24 hrs by Foci forming unit assay to CC50 for cytotoxicity against green monkey Vero cells. In kind it is toxicity, cell-based.

The test system of data set [3] is Chikungunya virus. The data set can be described thus: Antiviral activity against CHIKV infected in green monkey Vero cells assessed as reduction in viral titer at 25 uM pretreated the cells with viral infection for 1 hr followed by compound addition and measured after 24 hrs by Foci forming unit assay (reference value: 8.55 log10FFU/ml). In kind it is functional.

Data set [4] can be described thus: (§1) Cytotoxicity against green monkey Vero cells assessed as reduction in cell viability at 24 to 48 hrs by MTT assay. Type of data set: toxicity, cell-based. Set-up: Activity: concentration or dose not given beside the values. Conditions: chlorocebus sabaeus, Vero cells; time 24-48 hrs.
The test system of another data set is Vero. Described as §1. In kind it is toxicity, cell-based. On the set-up: Activity: concentration or dose not given beside the values. The note with it: chlorocebus sabaeus, vero; time 24-48 hrs.
Data set [5] deals with Chikungunya virus. The data set can be described thus: Antiviral activity against CHIKV infected in green monkey Vero cells assessed as reduction in viral titer at 12.5 to 25 uM pretreated the cells with viral infection for 1 hr followed by compound addition and measured after 24 hrs by Foci forming unit assay (reference value: 8.55 log10FFU/ml). In kind it is functional. Conditions: dose 12.5-25 µM.

The test system of data set [6] is Chikungunya virus. Description: Antiviral activity against CHIKV infected in green monkey Vero cells assessed as reduction in viral titer at 25 uM pretreated with compound for 24 hrs followed by viral infection by foci forming unit assay (reference value: 8.48 log10FFU/ml). Type of data set: functional.
The test system of data set [7] is Chikungunya virus. Description: Antiviral activity against CHIKV infected in green monkey Vero cells assessed as reduction in viral titer at 50 uM pretreated with compound for 24 hrs followed by viral infection by foci forming unit assay (reference value: 8.48 log10FFU/ml). In kind it is functional.
In data set [8] the test system is Chikungunya virus. Description: Antiviral activity against CHIKV infected in green monkey Vero cells assessed as reduction in viral titer pretreated with compound for 24 hrs followed by viral infection by Foci forming unit assay. In kind it is functional, organism-based.
The subject of data set [9] is Chikungunya virus. Description: Antiviral activity against CHIKV infected in green monkey Vero cells assessed as reduction in viral titer at 3.125 uM pretreated the cells with viral infection for 1 hr followed by compound addition and measured after 24 hrs by Foci forming unit assay (reference value: 8.55 log10FFU/ml). Type of data set: functional.
Data set [10] deals with Chikungunya virus. Description: Antiviral activity against CHIKV infected in green monkey Vero cells assessed as reduction in viral titer at 1.56 uM pretreated the cells with viral infection for 1 hr followed by compound addition and measured after 24 hrs by Foci forming unit assay (reference value: 8.55 log10FFU/ml). Type of data set: functional.

Broadly, the IC50 is the concentration that gives 50% inhibition. A word on the CC50: it is the concentration at which the toxic effect on the cells reaches its halfway point.

On to `COc1c(OCC(=O)N2CCN(S(=O)(=O)c3ccc(Cl)cc3)CC2)cc2oc3cc4c(c(O)c3c(=O)c2c1CC=C(C)C)C=CC(C)(C)O4`, for which, in the data set with Chikungunya virus [1], the half-inhibitory concentration (IC50) worked out at 11.2 µM. Besides, the selectivity ratio at 24 h in [2] was 14.3. For the same compound, the Activity in the data set on Chikungunya virus [3] is recorded as 7.39 log10FFU/ml; in the data set on Vero, above 90%. Further, the CC50 in data set [4] was 160 µM.

On to `COc1c(OCC(=O)N2CCN(S(=O)(=O)c3ccc(C(F)(F)F)cc3)CC2)cc2oc3cc4c(c(O)c3c(=O)c2c1CC=C(C)C)C=CC(C)(C)O4`, for which the IC50 was determined as 6.41 µM in the data set on Chikungunya virus [1] and 6.96 µM in the data set on Chikungunya virus [8]. Besides, the Activity in the data set on Chikungunya virus [5] is reported as 7.4 log10FFU/ml; in the data set on Chikungunya virus [6], around 7.29 log10FFU/ml; in the data set with Chikungunya virus [7], around 7.29 log10FFU/ml; in the data set with Vero it was above 90%. Besides, the selectivity ratio at 24 h in [2] is 25. For the same compound, the CC50 in data set [4] is 160 µM.

`COc1c(O)cc2oc3cc4c(c(O)c3c(=O)c2c1CC=C(C)C)C=CC(C)(C)O4` [MANGOSTANIN]: the Activity in the data set on Chikungunya virus [9] is listed as 6.42 log10FFU/ml; with Vero it was above 90%; with Chikungunya virus [10], 7.47 log10FFU/ml. In addition, the IC50 in the data set with Chikungunya virus [1] came out at 1.02 µM. In addition, in data set [2], the selectivity ratio at 24 h is 5.55. Also, the CC50 in [4] turned out to be 6.68 µM.
